We go through nine compounds from US5124325A, “Therapeutic agents of metabolic bone disease” (Kyorin Pharmaceutical Co., Ltd., priority 1989, dated 1992).

In general, inhibition refers to the drop in the measured response relative to a control, in per cent.

For one assay, the system named is bone resorption. The assay can be described thus: Inhibition of bone resorption (45Ca release from prelabeled rat embryonic limb bones stimulated with IL-1β). It is filed as cell-based, rat (SD). As to conditions: 25 μg/ml, 45Ca prelabeled rat embryonic limb bone, 72 hours culture. As for the experimental part: ^45 Ca prelabeled rat embryonic limbs for the measurement of bone resorption were prepared by the method of Raisz (J. Clin. Invest. 44, 103 (1965)). Briefly, 17th day pregnant SD rats were injected subcutaneously with 200 μCi of calcium-45 as calcium chloride. Two days later, the rats were killed, the embryos removed and washed with sterilized phosphated buffer solution (PBS). The forelimbs were dissected free of muscle and the cartilagious ends were cut off. The bone shaft was cultured with BGJb medium containing 20% bovine serum albumin (BSA).
The effect of each example compound of this invention on bone resorption was assessed by the method of Tsuda et al (J. Bone & Mineral Res. 1, 207 (1986)) with slight modification. Briefly, the trimmed bone was precultured for 24 hours at 37 ° C. and in an atmosphere of 5% CO2 in air on a millipore filter immersed in 0.6 ml of BGJb medium containing 20% BSA. 24-well plate was used for culture. The bone on the filter was then transferred to a new well filled with the medium containing the compounds of this invention with or without […] and cultured for 72 hours. 0.3 ml of the supernatant was collected and used to determine the ^45 Ca release from the bone. The bone was immersed in 0.3 ml of 1 N HCl for not less than 90 minutes, and 10 ml of ACS II scintillator was added so as to measure the radioactivity in a liquid scintillation counter. The activity of bone resorption was expressed as percent of ^45 Ca release to supernatant from labeled bone (sum of the radioactivity of the bone and the medium). One bone was cultured on one well and each experimental group consisted of 5 or 6 bones derived from fetus in one pregnant rat. The activity of bone resorption was determined by the formula.
U: ^45 Ca release without adding IL-1β
C: ^45 Ca release by adding IL-1β
T: ^45 Ca release by adding IL-1β and example compound
As to `O=C(O)c1cccc2c1NCC(c1ccccc1)C2` (stereo not shown) [Compound 5], the inhibition at 25 µg/mL was 103%.

With `O=C(O)c1cccc2c1NC(c1ccc(O)cc1)CC2` (stereo not shown) [Compound 6], the inhibition at 25 µg/mL was determined as 70%.

Regarding `CC(C)Oc1ccc2c(=O)c(-c3ccccc3)coc2c1` [Ipriflavone, 7-isopropoxyisoflavone, reference compound], the inhibition at 25 µg/mL came to 58%.

Take `O=C(O)c1cc(Cl)cc2c1NC(c1ccccc1)CC2` (stereo not shown) [Compound 1, 6-Chloro-2-phenyl-1,2,3,4-tetrahydroquinoline-8-carboxylic acid]: the inhibition at 25 µg/mL came to 74%.

Take `O=C(O)c1cc(Cl)cc2c1NCCC2` [Compound 4]: the inhibition at 25 µg/mL turned out to be 76%.

As to `O=C(O)c1cc([N+](=O)[O-])cc2c1NCCC2` [Compound 3], the inhibition at 25 µg/mL was 100%.

Consider `Cc1ccc(S(=O)(=O)Nc2cc3c(c(C(=O)O)c2)NC(c2ccccc2)CC3)cc1` (stereo not shown) [Compound 7, 2-Phenyl-6-p-toluenesulfonylamino-1,2,3,4-tetrahydroquinoline-8-carboxylic acid], for which the inhibition at 25 µg/mL was determined as 80%.

Turning to `CC(C)Oc1ccc(C2CCc3cccc(C(=O)O)c3N2)cc1` (stereo not shown) [Compound 8, 2-(4-Isopropoxyphenyl)-1,2,3,4-tetrahydroquinoline-8-carboxylic acid], the inhibition at 25 µg/mL came to 92%.

Turning to `O=C(O)c1cccc2c1NC(c1ccccc1)CC2` (stereo not shown) [Compound 2], the inhibition at 25 µg/mL came out at 113%.

In the next assay the test system is bone resorption.
Assay: not given
As to conditions: It has been reported; cited from earlier work.
For `CC(C)Oc1ccc2c(=O)c(-c3ccccc3)coc2c1` [Ipriflavone, 7-isopropoxyisoflavone, reference compound], the “inhibitory effect on bone resorption (in words)” value is given as “have inhibitory effect on bone resorption”.
